{"source": "patent US10538482B2", "about": "“Adamantane and memantine derivatives as peripheral NMDA receptor antagonists” (Institut National de la Santé et de la Recherche Médicale …, priority 2015, dated 2020)", "key": {"NMDAR": {"system": "NMDAR", "assay": "NMDAR blocking activity, whole-cell voltage clamp (patch-clamp) recordings from rat hippocampal neurons", "format": "cell-based", "conditions": "read-out: IC50 (NMDAR antagonist activity)"}, "[1]": {"assay": "In vivo brain penetration measurement in rat (plasma and brain concentration, Kp\"brain\")", "conditions": "for Brain concentration / Plasma concentration / concentration at 3.75 h: male Sprague-Dawley rat, end of 3.75 h constant-rate i.v. infusion; for Brain concentration / Plasma concentration / concentration at 3.75 h / Kp at 3.75 h / Kp\"brain\" (total brain/plasma concentration ratio at steady state): 4 mg/kg; for concentration at 3.75 h / Kp at 3.75 h: male, Sprague-Dawley, iv; for Kp at 3.75 h: brain/plasma; for Kp at 3.75 h / Kp\"brain\" (total brain/plasma concentration ratio at steady state): 3.75 h i.v. infusion", "procedure": "The femoral vein of male Sprague-Dawley rats (CRL) weighing around 250 g was surgically catheterized at least 72 hours prior to the experiment. The drug was administered as 3.75 h constant-rate intravenous infusion to approach steady state, using a flow rate of 0.8 mL/h, corresponding to dosage of 4 mg/kg (1.067 mg/kg/h, i.e. 1 mg/rat of ˜250 g). The vehicle used was saline.\nAt the end of the infusion, the rats were anesthetized by inhalation of isoflurane, and blood was collected in a heparinized tube from the abdominal aorta, followed by immediate rinsing of the bloodstream for 2 minutes with saline at a rate of 15 mL/min using a peristaltic pump and left intraventricle cannula (flowing via right atrium). The brain (without cerebellum) was removed, and transferred in a tube and homogenized in two volumes of deionized water using a tissue homogenizer (Precellys24). All samples were stored at −20° C. until analysis. Plasma and brain homogenate sample preparation was performed using solid phase extraction on OASIS® WCX (Waters) and compounds were quantified by reversed phase liquid chromatography and positive electrospray ionization and multiple reaction monitoring mass spectrometry (LC-MS/MS).\nThis parameter is defined as the ratio of concentrations in brain and blood, Kp“brain” (Cbrain/Cplasma) or log(BB). Log(BB) is the logarithm of the ratio of the steady-state total concentration of a compound in the brain to that in the blood/plasma, log(BB)=log(Cbrain/Cplasma). This parameter depends upon the passive diffusion characteristics, the implication of membrane transporters at the BBB level and the relative drug binding affinity differences between the plasma proteins and brain tissue. Generally, compounds with a brain/plasma ratio of greater than 0.3-0.5 are considered to have sufficient access to the CNS, compounds with a value greater than 1 freely cross the BBB, whereas compounds with a brain/plasma ratio smaller than 0.1 may be unable to enter the CNS.\nThus, the brain penetration of memantine and Compound N^o1 was measured in rat by establishing the brain/plasma ratio, Kp“brain” in triplicate (3 rats/Compound). The three tables below (Tables 1-3) show the results on plasma concentration, brain concentration and calculation of the Kp“brain” for the two compounds memantine and Compound N^° 1."}, "[2]": {"conditions": "rat hippocampal neurons, -60 mV, currents evoked by 100 μM NMDA and 20 μM D-serine"}, "[3]": {"conditions": "rat, brain, mean of 3 rats, read-out: Brain concentration, Mean"}, "[4]": {"conditions": "rat, rat, mean of 3 rats, read-out: Kp\"brain\", Mean"}, "[5]": {"conditions": "rat, plasma, individual rats, read-out: Plasma concentration"}, "[6]": {"conditions": "rat, plasma, mean of 3 rats, read-out: Plasma concentration, Mean"}}, "note": "“And” between values parts separate entries of the source, which are not always exact repeats. Identical values can stand only once. Like-named read-outs stand apart in the source and are kept apart here."}
{"smiles": "CC12CC3CC(C)(C1)CC([N+](C)(C)C)(C3)C2", "note": "[Compound No1, N,N,N,3,5-Pentamethyladamantan-1-ammonium iodide]", "values": [{"measurement": "IC50", "setting": "NMDAR; [2]", "value": 9.9, "unit": "µM"}, {"measurement": "Brain concentration", "setting": "[1]; individual rats", "value": "0.90 ng/g and 3.57 ng/g and 3.03 ng/g"}, {"measurement": "Plasma concentration", "setting": "[1]; individual rats", "value": "23.11 ng/mL and 24.52 ng/mL"}, {"measurement": "concentration at 3.75 h", "setting": "[1]; [3]", "value": 2.5, "unit": "ng/g"}, {"measurement": "Kp at 3.75 h", "setting": "[1]; [4]", "value": 0.091}, {"measurement": "concentration at 3.75 h", "setting": "[1]; [5]", "value": 34.8, "unit": "ng/mL"}, {"measurement": "concentration at 3.75 h", "setting": "[1]; [6]", "value": 27.5, "unit": "ng/mL"}, {"measurement": "Kp\"brain\" (total brain/plasma concentration ratio at steady state)", "setting": "[1]; rat, individual rats", "value": "0.15 and 0.09 and 0.04"}]}
{"smiles": "CC12CC3CC(C)(C1)CC([N+](C)(C)C)(C3)C2", "note": "[Compound No1′]", "values": [{"measurement": "IC50", "setting": "NMDAR; rat hippocampal neurons, -60 mV, currents evoked by 100 μM NMDA and 20 μM D-serine, listed as Compound N^o1′", "value": "~10", "unit": "µM"}, {"measurement": "IC50", "setting": "NMDAR; [2]", "value": 11.6, "unit": "µM"}]}
{"smiles": "CC[N+](C)(C)C12CC3CC(C)(CC(C)(C3)C1)C2", "note": "[Compound No2, N-Ethyl-N,N-3,5-tetramethyladamantan-1-ammonium iodide]", "values": [{"measurement": "IC50", "setting": "NMDAR; [2]", "value": 18, "unit": "µM"}]}
{"smiles": "CCC[N+](C)(C)C12CC3CC(C)(CC(C)(C3)C1)C2", "note": "[Compound No3, N-Propyl-N,N-3,5-tetramethyladamantan-1-ammonium iodide]", "values": [{"measurement": "IC50", "setting": "NMDAR; [2]", "value": 29, "unit": "µM"}]}
{"smiles": "CCCC[N+](C)(C)C12CC3CC(C)(CC(C)(C3)C1)C2", "note": "[Compound No4, N-Butyl-N,N-3,5-tetramethyladamantan-1-ammonium iodide]", "values": [{"measurement": "IC50", "setting": "NMDAR; [2]", "value": 110, "unit": "µM"}]}
{"smiles": "CC(C)CC[N+](C)(C)C12CC3CC(C)(CC(C)(C3)C1)C2", "note": "[Compound No6, N-isoPentyl-N,N-3-5-tetramethyladamantan-1-ammonium iodide]", "values": [{"measurement": "IC50", "setting": "NMDAR; [2]", "value": 14.3, "unit": "µM"}]}
{"smiles": "CC12CC3CC(C)(C1)CC([N+](C)(C)CC1CC1)(C3)C2", "note": "[Compound No8, N-(Cyclopropylmethyl)-N,N-3,5-tetramethyladamantan-1-ammonium iodide]", "values": [{"measurement": "IC50", "setting": "NMDAR; [2]", "value": 3.5, "unit": "µM"}]}
{"smiles": "CC12CC3CC(C)(C1)CC([N+](C)(C)CC1CCCCC1)(C3)C2", "note": "[Compound No9, N-(Cyclohexylmethyl)-N,N-3,5-tetramethyladamantan-1-ammonium iodide]", "values": [{"measurement": "IC50", "setting": "NMDAR; [2]", "value": 35.2, "unit": "µM"}]}
{"smiles": "CC12CC3CC(C)(C1)CC(N)(C3)C2", "note": "[Memantine, memantine]", "values": [{"measurement": "IC50", "setting": "NMDAR", "value": 1, "unit": "µM"}, {"measurement": "Brain concentration", "setting": "[1]; individual rats", "value": "2977 ng/g and 3237 ng/g"}, {"measurement": "Plasma concentration", "setting": "[1]; individual rats", "value": "88.69 ng/mL and 94.85 ng/mL"}, {"measurement": "concentration at 3.75 h", "setting": "[1]; rat, brain, individual rats, read-out: Brain concentration", "value": 3340, "unit": "ng/g"}, {"measurement": "concentration at 3.75 h", "setting": "[1]; [3]", "value": 3180, "unit": "ng/g"}, {"measurement": "Kp at 3.75 h", "setting": "[1]; rat, rat, individual rats, read-out: Kp\"brain\" (total brain/plasma concentration ratio at steady state)", "value": 27.1}, {"measurement": "Kp at 3.75 h", "setting": "[1]; [4]", "value": 31.6}, {"measurement": "concentration at 3.75 h", "setting": "[1]; [5]", "value": 123, "unit": "ng/mL"}, {"measurement": "concentration at 3.75 h", "setting": "[1]; [6]", "value": 102, "unit": "ng/mL"}, {"measurement": "Penetration of the BBB / CNS (in words)", "setting": "[1]; rat", "value": "penetrates freely across the BBB"}, {"measurement": "Kp\"brain\" (total brain/plasma concentration ratio at steady state)", "setting": "[1]; rat, individual rats", "value": "33.57 and 34.13"}]}
